In publication PMC5433008 (BMC Neuroscience, 2017):
Where a SMILES comes first, the peptide text is derived from it.

Experiments:
GluN1a–GluN2A = assay type: cell-based
[1] = test system: NMDA-evoked currents in cultured rat embryonic hippocampal neurons (NMDAr); conditions: for IC50: pH 7.4
[2] = test system: recombinant NMDAr comprised of either GluN1a–GluN2A or GluN1a–GluN2B subunits; assay type: cell-based
GluN1a–GluN2B = assay type: cell-based

**Q.** Which results are given for `CC[C@H](C)[C@H](NC(=O)[C@H](CC(C)C)NC(=O)[C@H](CC(=O)O)NC(=O)[C@H](CCC(N)=O)NC(=O)[C@H](CC(N)=O)NC(=O)[C@H](CC(=O)O)NC(=O)[C@H](CCC(N)=O)NC(=O)[C@H](CC(C)C)NC(=O)[C@H](CC(=O)O)NC(=O)[C@H](CC(=O)O)NC(=O)[C@H](CCC(=O)O)NC(=O)CN)C(=O)N[C@@H](CCCNC(=N)N)C(=O)N[C@@H](CC(=O)O)C(=O)N[C@@H](CCCCN)C(=O)N[C@@H](CO)C(=O)N[C@@H](CC(N)=O)C(=O)O` [EAR16] (H-GEDDLQDNQDLIRDKSN-OH)?
**A.** block of NMDA-evoked currents, GluN1a–GluN2A (GluN1a–GluN2A): 50%; dose dependence of inhibition [1]: dose-dependent; off rate (from transient current increase on simultaneous removal of NMDA + peptide) [1]: fast enough that would allow binding of NMDA early on during washout; reversibility of block [1]: highly reversible; use-dependence of block [1]: no clear use-dependence; IC50 [1]: 241 µM; difference between control-NMDA and wash-NMDA (reversibility) [2]: No significant difference; off rate (from short-lived current increase on simultaneous removal of NMDA + peptide) [2]: fast enough that would allow binding of NMDA early on during washout; reversibility, recombinant NMDAr versus neuronal NMDAr [2]: faster from the recombinant NMDAr than from NMDAr expressed in neuronal cells; block of NMDA-evoked currents, GluN1a–GluN2B (GluN1a–GluN2B): 84%

**Q.** For `CC[C@H](C)[C@H](NC(=O)[C@H](CC(C)C)NC(=O)[C@H](CC(=O)O)NC(=O)[C@H](CCC(N)=O)NC(=O)[C@H](C)NC(=O)[C@H](CC(=O)O)NC(=O)[C@H](CCC(N)=O)NC(=O)[C@H](Cc1ccc(O)cc1)NC(=O)[C@H](CC(=O)O)NC(=O)[C@H](CC(=O)O)NC(=O)[C@H](CCC(=O)O)NC(=O)CN)C(=O)N[C@@H](CCCNC(=N)N)C(=O)N[C@@H](CC(=O)O)C(=O)N[C@@H](CCCCN)C(=O)N[C@@H](CO)C(=O)N[C@@H](CC(N)=O)C(=O)O` [EAR18] (H-GEDDYQDAQDLIRDKSN-OH), which IC50 [1] is on record?
**A.** The IC50 was 176 µM.
